Reference: patent publication US20250352530A1, “METHOD AND COMPOSITION FOR TREATING LUNG DISEASES” (MannKind Corporation, priority 2024, published 2025)

Assay: Pharmacokinetic study in rats, pulmonary insufflation versus intravenous injection
Format: in vivo, male Sprague Dawley rats
Details: 0.8 mg/kg single dose; lung samples 10-240 minutes post administration; FIG. 5
Protocol: Pharmacokinetic studies in rats with Compound I crystalline composite (XC) dry powders—Insufflation studies were performed in rats to deliver doses of dry powders of Compound I, a protein kinase antagonist. The study was performed to determine the pharmacokinetics profile of Compound I dry powders made by the process as described above following pulmonary insufflation, or intravenous injection of a single dose of the composition administered in solution to male Sprague Dawley (Charles River Laboratories) adult rats, weighing between 200 g and 250 g at the time of the study. Dry powder comprising 22.1 wt % actual drug content were used and tested at 1 mg/ml in solution to deliver a dose of 0.8 mg/kg to 18 rats in each study group. Rats acclimatized and anesthetized prior to experimentation. Lung and blood samples were taken from the rats at 10, 20, 30, 120, and 240 minutes, post drug administration.

In the case of `Cc1cccc(-n2ncc(C)c2-c2cc3cnccc3s2)n1` [Compound I, 2-[4-methyl-1-(6-methylpyridin-2-yl)-1H-pyrazol-5-yl]thieno-[3,2-c]pyridine], the “content of Compound I in rat lung, insufflation versus IV injection” value is reported as “a higher content of Compound I was detected in rat lung after insufflation versus IV injection for a longer period of time”.
